Results as given in US20070259329A1, “Anergy-inducing cellular composition” (BioVerde. Inc., priority 2006, published 2007).
Marks after values point to notes of the source that are not given here.

Legend:
Format in all cases: cell-based, murine (C57BI/6 splenocytes)
CD25 = target: T1, CD25 (Mus musculus, UniProt P01590); assay: Lymphocyte marker analysis by flow cytometry, CD25 epitope; conditions: for percent expression of cell surface molecule CD25: epitope-specific antibody, average of triplicate; for average percent suppression in epitope detection, CD25: relative to untreated control (0 ppm)
T1 construct: endogenous in cells; host or cells: murine splenocytes (C57Bl/6)
T1 sequence (P01590 22-268): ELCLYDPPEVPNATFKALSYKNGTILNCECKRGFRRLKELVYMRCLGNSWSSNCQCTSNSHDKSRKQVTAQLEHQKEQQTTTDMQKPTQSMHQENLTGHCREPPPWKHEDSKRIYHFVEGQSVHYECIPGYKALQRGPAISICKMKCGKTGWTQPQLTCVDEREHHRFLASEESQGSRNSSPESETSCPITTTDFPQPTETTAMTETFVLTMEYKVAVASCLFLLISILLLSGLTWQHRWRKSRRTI
Procedure: (§1) To evaluate the action of EGCG in rendering cells to become anergy-inducing, murine splenocytes were used as a model system. Splenocytes were collected from BALB/c (H2 K^b) and C57BI/6 (H2 K^d) female mice of 8 to 13 weeks of age in HBSS (BioWhittaker) with 1% FCS. Cells were washed with HBSS (1% FCS) and treated with the media solution which contains RPMI 1640 (Sigma-Aldrich), 10 mM HEPES (Dojindo), and various concentrations of EGCG (98% purity, Roche) described in the examples.
(§2) Flow cytometric analyses of surface epitopes for the control and EGCG-treated splenocytes were performed using a series of fluorescence-labeled monoclonal anti-mouse CD and MHC and corresponding isotype control antibodies (eBioscience: CD2, CD36, CD4, CD11a, CD25, CD 28, CD 49d and CD80; Pharmingen: TCRαβ and MHC II). Murine splenocytes (C57BI/6) were treated with red blood cell lysis buffer (eBioscience) for 5 min prior to EGCG treatments. Immediately following EGCG-treatments, the splenocytes were washed with RPMI 1640 (10% FCS) and a staining buffer (eBioscience) at 4 degree C. Each splenocyte sample was reconstituted as a 50 μl aliquot in the same staining buffer and subject to antibody labeling. After washing twice the samples with the staining buffer, a minimum of 10,000 events per sample was collected on a Becton Dickinson FACScan flow cytometer.

CD4 = target: T2, CD4 (Mus musculus, UniProt P06332); assay: Lymphocyte marker analysis by flow cytometry, CD4 epitope; conditions: for percent expression of cell surface molecule CD4: epitope-specific antibody, average of triplicate; for average percent suppression in epitope detection, CD4: relative to untreated control (0 ppm)
T2 construct: endogenous in cells; host or cells: murine splenocytes (C57Bl/6)
T2 sequence (P06332 27-457): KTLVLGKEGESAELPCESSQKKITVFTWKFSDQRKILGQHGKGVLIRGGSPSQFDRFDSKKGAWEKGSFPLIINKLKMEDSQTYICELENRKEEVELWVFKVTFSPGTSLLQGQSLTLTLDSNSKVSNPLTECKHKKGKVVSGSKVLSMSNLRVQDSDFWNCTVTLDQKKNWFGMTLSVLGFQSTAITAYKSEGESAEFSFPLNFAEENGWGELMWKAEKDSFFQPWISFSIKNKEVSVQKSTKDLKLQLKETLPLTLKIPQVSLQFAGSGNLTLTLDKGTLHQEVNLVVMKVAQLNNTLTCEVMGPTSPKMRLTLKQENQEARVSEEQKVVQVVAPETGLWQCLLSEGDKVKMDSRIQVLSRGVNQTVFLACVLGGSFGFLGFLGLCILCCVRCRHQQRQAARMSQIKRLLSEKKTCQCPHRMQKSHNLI
Procedure: as §1, §2

TCRαβ = assay: Lymphocyte marker analysis by flow cytometry, TCRαβ epitope; conditions: for percent expression of cell surface molecule TCRαβ: epitope-specific antibody, average of triplicate; for average percent suppression in epitope detection, TCRαβ: relative to untreated control (0 ppm)
Procedure: as §1, §2

percent expression of cell surface molecule CD25 (CD25; EGCg 100 ppm): 11.6% | average percent suppression in epitope detection, CD25 (CD25; EGCg 100 ppm): (16.5)^n.s. percent | percent expression of cell surface molecule CD25 (CD25; EGCg 200 ppm): 10.8% | average percent suppression in epitope detection, CD25 (CD25; EGCg 200 ppm): (22.3)* percent | blocking of CD25 by EGCG (CD25; summary of TABLE 1): blocked | percent expression of cell surface molecule CD4 (CD4; EGCg 100 ppm): 21.1% | average percent suppression in epitope detection, CD4 (CD4; EGCg 100 ppm): (12.1)* percent | percent expression of cell surface molecule CD4 (CD4; EGCg 200 ppm): 20.8% | average percent suppression in epitope detection, CD4 (CD4; EGCg 200 ppm): (13.3)* percent | binding of TCRαβ with its monoclonal antibody (TCRαβ; EGCG treatment, summary of TABLE 1): hardly to moderately decreased
Substance: (−)-epigallocatechin-3-o-gallate [EGCG]
percent expression of cell surface molecule TCRαβ (TCRαβ; EGCg 100 ppm): 29.9% | average percent suppression in epitope detection, TCRαβ (TCRαβ; EGCg 100 ppm): (3.5)^n.s. percent | percent expression of cell surface molecule TCRαβ (TCRαβ; EGCg 200 ppm): 29.7% | average percent suppression in epitope detection, TCRαβ (TCRαβ; EGCg 200 ppm): (4.2)^n.s. percent
